Measured values as given in PMC11992225, “Antibacterial compounds against non-growing and intracellular bacteria” (npj Antimicrobials and Resistance, 2025).
pEC50: −log10 of the molar value. Values joined by “and” are separate entries in the source; they are usually repeats but may differ in a detail not shown here. Equal entries are not always repeated.

Key:
[1] = system: non-growing S. aureus DSM2569; test: Dilution-regrowth assay (OD600, start-growth-time) on stationary-phase S. aureus; format: cell-based, Staphylococcus aureus; conditions: S. aureus; for Regrowth: OD600 after dilution into drug-free medium (mean): OD600 at 6h or 8h
Summary of the method: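 Stationary-phase S. aureus cultures were grown and exposed to compound for 24 h in 1:4 CA-MHB (pH 7.4) at 37 °C in 96-well plates with 200 μl volume. After dilution into drug-free medium, regrowth was tracked in a plate reader at 37 °C with continuous shaking, reading OD600 every 20 min; EC50 came from five-parameter logistic fitting.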

non-growing UPEC CFT073 = test: Dose-dependent killing analysis (CFU spot-plating) of stationary-phase UPEC; format: cell-based, Escherichia coli
Summary of the method: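 Non-growing (stationary-phase) UPEC CFT073 treated with compounds in 96-well format at 200 μl, then 10-fold serially diluted in PBS and 10 μl spots plated on LB agar. Plates incubated overnight at 37 °C; colonies counted at lowest resolvable dilution to give CFU. Three biological replicates.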

[2] = system: non-growing P. aeruginosa DSM1117; test: Dose-dependent killing analysis (CFU spot-plating) of stationary-phase P. aeruginosa; format: cell-based, Pseudomonas aeruginosa; conditions: for Killing: average Δlog10(CFU/ml) / log10(CFU/ml) after treatment, single replicates: P. aeruginosa; for Killing: average Δlog10(CFU/ml): vs 8.887 before treatment
Summary of the method: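 Stationary-phase P. aeruginosa DSM1117 treated for 24 h in 1:4 CA-MHB, pH 7.4, across compound doses. Survivors counted after 10-fold PBS dilution, spot-plating on LB agar and overnight growth at 37 °C; three biological replicates.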

[3] = system: non-growing S. aureus DSM2569; test: Dose-dependent killing analysis (CFU spot-plating) of stationary-phase S. aureus; format: cell-based, Staphylococcus aureus; conditions: S. aureus; for Killing: average Δlog10(CFU/ml): vs 9,097 before treatment
Summary of the method: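 Stationary-phase S. aureus DSM2569 was grown and treated for 24 h in 1:4 CA-MHB at pH 7.4. Treated samples were serially diluted 10-fold in PBS and spot-plated on LB agar, which was incubated overnight at 37 °C. Survivors were counted as CFU over three biological replicates.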

## CO[C@H]1/C=C/O[C@@]2(C)Oc3c(C)c(O)c4c(c3C2=O)C2=NC3(CCN(CC(C)C)CC3)NC2=C(NC(=O)/C(C)=C\C=C\[C@H](C)[C@H](O)[C@@H](C)[C@@H](O)[C@@H](C)[C@H](OC(C)=O)[C@@H]1C)C4=O [Rifabutin]
[1]; concentration 0.1
  Regrowth: OD600 after dilution into drug-free medium (mean): 0.129
[1]; concentration 0.5
  Regrowth: OD600 after dilution into drug-free medium (mean): 0.135
[1]; concentration 2.5
  Regrowth: OD600 after dilution into drug-free medium (mean): 0.130
[1]; concentration 10
  Regrowth: OD600 after dilution into drug-free medium (mean): 0.096
[1]; Staphylococcus aureus, DSM2569, regrowth delay of non-growing bacteria, 1:4 CA-MHB pH 7.4, 24 h treatment, OD600 8 h after dilution, read-out: EC50
  pEC50: 7.49
non-growing UPEC CFT073; 24 h treatment of stationary phase culture
  bactericidal activity against non-growing UPEC (CFU counting): did not kill
non-growing UPEC CFT073; E. coli in 1:4 CA-MHB (pH 7.4), concentration 0.25
  log10(CFU/ml) after treatment, single replicates: 9.000 log10(CFU/ml) (2×) and 8.699 log10(CFU/ml)
non-growing UPEC CFT073; E. coli in 1:4 CA-MHB (pH 7.4), concentration 0.25, vs 8.977 before treatment
  Killing: average Δlog10(CFU/ml): 0.078 log10(CFU/ml)
non-growing UPEC CFT073; E. coli in 1:4 CA-MHB (pH 7.4), concentration 0.5
  log10(CFU/ml) after treatment, single replicates: 9.230 log10(CFU/ml) and 8.532 log10(CFU/ml) and 8.699 log10(CFU/ml)
non-growing UPEC CFT073; E. coli in 1:4 CA-MHB (pH 7.4), concentration 0.5, vs 8.977 before treatment
  Killing: average Δlog10(CFU/ml): 0.157 log10(CFU/ml)
non-growing UPEC CFT073; E. coli in 1:4 CA-MHB (pH 7.4), concentration 1
  log10(CFU/ml) after treatment, single replicates: 9.322 log10(CFU/ml) and 8.477 log10(CFU/ml) and 8.301 log10(CFU/ml)
non-growing UPEC CFT073; E. coli in 1:4 CA-MHB (pH 7.4), concentration 1, vs 8.977 before treatment
  Killing: average Δlog10(CFU/ml): 0.277 log10(CFU/ml)
non-growing UPEC CFT073; E. coli in 1:4 CA-MHB (pH 7.4), concentration 2.5
  log10(CFU/ml) after treatment, single replicates: 8.699 log10(CFU/ml) and 8.505 log10(CFU/ml) and 8.000 log10(CFU/ml)
non-growing UPEC CFT073; E. coli in 1:4 CA-MHB (pH 7.4), concentration 2.5, vs 8.977 before treatment
  Killing: average Δlog10(CFU/ml): 0.576 log10(CFU/ml)
non-growing UPEC CFT073; E. coli in 1:4 CA-MHB (pH 7.4), concentration 5
  log10(CFU/ml) after treatment, single replicates: 9.041 log10(CFU/ml) and 8.447 log10(CFU/ml) and 9.000 log10(CFU/ml)
non-growing UPEC CFT073; E. coli in 1:4 CA-MHB (pH 7.4), concentration 5, vs 8.977 before treatment
  Killing: average Δlog10(CFU/ml): 0.148 log10(CFU/ml)
non-growing UPEC CFT073; E. coli in 1:4 CA-MHB (pH 7.4), concentration 10
  log10(CFU/ml) after treatment, single replicates: 8.903 log10(CFU/ml) and 8.176 log10(CFU/ml) and 8.415 log10(CFU/ml)
non-growing UPEC CFT073; E. coli in 1:4 CA-MHB (pH 7.4), concentration 10, vs 8.977 before treatment
  Killing: average Δlog10(CFU/ml): 0.479 log10(CFU/ml)
non-growing UPEC CFT073; E. coli in LPM (pH 5.5), concentration 0.25
  log10(CFU/ml) after treatment, single replicates: 6.954 log10(CFU/ml) and 6.415 log10(CFU/ml) and 7.954 log10(CFU/ml)
non-growing UPEC CFT073; E. coli in LPM (pH 5.5), concentration 0.25, vs 7.350 before treatment
  Killing: average Δlog10(CFU/ml): 0.243 log10(CFU/ml)
non-growing UPEC CFT073; E. coli in LPM (pH 5.5), concentration 0.5
  log10(CFU/ml) after treatment, single replicates: 7.000 log10(CFU/ml) and 6.778 log10(CFU/ml) and 7.663 log10(CFU/ml)
non-growing UPEC CFT073; E. coli in LPM (pH 5.5), concentration 0.5, vs 7.350 before treatment
  Killing: average Δlog10(CFU/ml): 0.203 log10(CFU/ml)
non-growing UPEC CFT073; E. coli in LPM (pH 5.5), concentration 1
  log10(CFU/ml) after treatment, single replicates: 6.954 log10(CFU/ml) and 6.398 log10(CFU/ml) and 7.681 log10(CFU/ml)
non-growing UPEC CFT073; E. coli in LPM (pH 5.5), concentration 1, vs 7.350 before treatment
  Killing: average Δlog10(CFU/ml): 0.339 log10(CFU/ml)
non-growing UPEC CFT073; E. coli in LPM (pH 5.5), concentration 2.5
  log10(CFU/ml) after treatment, single replicates: 7.322 log10(CFU/ml) and 6.845 log10(CFU/ml) and 7.623 log10(CFU/ml)
non-growing UPEC CFT073; E. coli in LPM (pH 5.5), concentration 2.5, vs 7.350 before treatment
  Killing: average Δlog10(CFU/ml): 0.087 log10(CFU/ml)
non-growing UPEC CFT073; E. coli in LPM (pH 5.5), concentration 5
  log10(CFU/ml) after treatment, single replicates: 6.477 log10(CFU/ml) and 6.845 log10(CFU/ml) and 7.462 log10(CFU/ml)
non-growing UPEC CFT073; E. coli in LPM (pH 5.5), concentration 5, vs 7.350 before treatment
  Killing: average Δlog10(CFU/ml): 0.422 log10(CFU/ml)
non-growing UPEC CFT073; E. coli in LPM (pH 5.5), concentration 10
  log10(CFU/ml) after treatment, single replicates: 7.114 log10(CFU/ml) and 6.954 log10(CFU/ml) and 7.633 log10(CFU/ml)
non-growing UPEC CFT073; E. coli in LPM (pH 5.5), concentration 10, vs 7.350 before treatment
  Killing: average Δlog10(CFU/ml): 0.116 log10(CFU/ml)
[2]; concentration 0.1
  Killing: average Δlog10(CFU/ml): 0.484 log10(CFU/ml)
[2]; concentration 0.25
  log10(CFU/ml) after treatment, single replicates: 8.477 log10(CFU/ml) and 8.954 log10(CFU/ml) and 7.778 log10(CFU/ml)
[2]; concentration 0.5
  Killing: average Δlog10(CFU/ml): 0.158 log10(CFU/ml)
[2]; concentration 2.5
  Killing: average Δlog10(CFU/ml): 4.469 log10(CFU/ml)
[2]; printed on the line of concentration 1
  log10(CFU/ml) after treatment, single replicates: 8.301 log10(CFU/ml) and 9.041 log10(CFU/ml) and 8.845 log10(CFU/ml)
[2]; printed on the line of concentration 5
  log10(CFU/ml) after treatment, single replicates: 4.477 log10(CFU/ml) and 4.778 log10(CFU/ml) and =<4 log10(CFU/ml)
[2]; at 2.5 µM, 1:4 CA-MHB pH 7.4, 24 h treatment
  reduction of bacterial counts, non-growing P. aeruginosa: more than four
[2]; at 2.5 µM, 24 h treatment
  killing of non-growing P. aeruginosa: > 4 log10
[3]; concentration 0.1
  log10(CFU/ml) after treatment, single replicates: 8.833 log10(CFU/ml) and 8.875 log10(CFU/ml) and 8.763 log10(CFU/ml)
  Killing: average Δlog10(CFU/ml): 0.273 log10(CFU/ml)
[3]; concentration 0.5
  log10(CFU/ml) after treatment, single replicates: 8.869 log10(CFU/ml) and 8.996 log10(CFU/ml) and 8.079 log10(CFU/ml)
  Killing: average Δlog10(CFU/ml): 0.449 log10(CFU/ml)
[3]; concentration 2.5
  log10(CFU/ml) after treatment, single replicates: 8.763 log10(CFU/ml) and 8.785 log10(CFU/ml) and 8.643 log10(CFU/ml)
  Killing: average Δlog10(CFU/ml): 0.366 log10(CFU/ml)
[3]; concentration 10
  log10(CFU/ml) after treatment, single replicates: 8.778 log10(CFU/ml) and 8.806 log10(CFU/ml) and 8.756 log10(CFU/ml)
  Killing: average Δlog10(CFU/ml): 0.317 log10(CFU/ml)
